Data on one compound can be found in ChEMBL document CHEMBL5331123, “Potent Dual Inhibitors of Steroid Sulfatase and 17β-Hydroxysteroid Dehydrogenase Type 1 with a Suitable Pharmacokinetic Profile for In Vivo Proof-of-Principle Studies in an Endometriosis Mouse Model” (J Med Chem, 2023).

Values after ≈ are worked out from the molar mass of the structure shown.

Data set [1] has as its target T1, Steryl-sulfatase (Homo sapiens, UniProt P08842).
T1 sequence (P08842 whole entry): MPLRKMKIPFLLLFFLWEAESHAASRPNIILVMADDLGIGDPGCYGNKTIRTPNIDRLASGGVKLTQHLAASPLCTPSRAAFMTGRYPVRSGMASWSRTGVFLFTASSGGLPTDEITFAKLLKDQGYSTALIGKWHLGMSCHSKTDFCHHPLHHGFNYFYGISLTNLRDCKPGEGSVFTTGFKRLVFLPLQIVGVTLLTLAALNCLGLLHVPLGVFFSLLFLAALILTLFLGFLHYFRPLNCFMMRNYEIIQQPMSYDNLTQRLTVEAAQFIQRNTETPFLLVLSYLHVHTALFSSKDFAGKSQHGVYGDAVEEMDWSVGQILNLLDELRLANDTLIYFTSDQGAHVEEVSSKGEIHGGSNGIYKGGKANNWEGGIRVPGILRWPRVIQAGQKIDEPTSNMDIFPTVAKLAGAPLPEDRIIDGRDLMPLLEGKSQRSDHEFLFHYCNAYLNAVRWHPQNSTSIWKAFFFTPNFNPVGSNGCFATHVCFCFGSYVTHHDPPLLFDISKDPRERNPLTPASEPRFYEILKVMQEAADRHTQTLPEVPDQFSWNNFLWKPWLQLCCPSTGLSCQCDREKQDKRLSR
The data set can be described thus: Inhibition of human STS expressed in human T47D cells using [3H]E1S as substrate incubated for 1 hr followed by substrate addition measured after 24 hrs in presence of E1S by HPLC analysis. The class given is cell-based.

Data set [2] concerns the target T2, 17-beta-hydroxysteroid dehydrogenase type 1 (Homo sapiens, UniProt P14061).
T2 sequence (P14061 whole entry): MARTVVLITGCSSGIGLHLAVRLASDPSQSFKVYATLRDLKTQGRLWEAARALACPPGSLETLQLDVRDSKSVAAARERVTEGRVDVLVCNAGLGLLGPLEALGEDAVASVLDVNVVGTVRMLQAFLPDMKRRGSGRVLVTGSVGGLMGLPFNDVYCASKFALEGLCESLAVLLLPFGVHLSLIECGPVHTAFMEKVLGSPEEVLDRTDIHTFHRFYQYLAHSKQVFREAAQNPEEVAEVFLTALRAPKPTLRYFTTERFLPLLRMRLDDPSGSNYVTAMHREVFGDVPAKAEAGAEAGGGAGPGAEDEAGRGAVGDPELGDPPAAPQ
The data set can be described thus: Inhibition of human 17beta-HSD1 expressed in human T47D cells using [3H]E1 as substrate incubated for 1 hr followed by substrate addition measured after 40 mins in presence of E1 by HPLC analysis. The class given is cell-based.

The nature of data set [3]: Metabolic stability in human liver S9 fraction assessed as half life measured upto 60 mins in presence of NADPH by LC-MS/MS analysis. The following applies: liver S9 fraction. The class given is ADME, subcellular.
Data set [4] in a line: Metabolic stability in mouse liver S9 fraction assessed as half life measured upto 60 mins in presence of NADPH by LC-MS/MS analysis. The following applies: liver S9 fraction. In kind it is ADME, subcellular.
Data set [5] has as its target T2, 17-beta-hydroxysteroid dehydrogenase type 1. The data set can be described thus: Inhibition of human placental cytosolic fraction 17beta-HSD1 using [3H]E1 as substrate measured after 10 mins in presence of NADH by HPLC analysis. The class given is tissue-based, Placenta.
In data set [6] the target is T3, 17-beta-hydroxysteroid dehydrogenase type 2 (Homo sapiens, UniProt P37059).
T3 sequence (P37059 whole entry): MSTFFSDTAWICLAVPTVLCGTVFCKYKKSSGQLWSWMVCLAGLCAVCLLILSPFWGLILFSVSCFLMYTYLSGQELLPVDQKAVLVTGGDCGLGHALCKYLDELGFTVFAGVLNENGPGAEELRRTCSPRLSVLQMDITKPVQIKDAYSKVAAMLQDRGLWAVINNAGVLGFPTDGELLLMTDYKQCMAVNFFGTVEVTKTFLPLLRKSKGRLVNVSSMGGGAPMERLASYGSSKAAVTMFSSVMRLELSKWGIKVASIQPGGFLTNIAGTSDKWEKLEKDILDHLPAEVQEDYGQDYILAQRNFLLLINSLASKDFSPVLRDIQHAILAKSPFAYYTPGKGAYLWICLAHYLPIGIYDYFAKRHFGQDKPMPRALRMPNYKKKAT
The data set can be described thus: Inhibition of human placental microsomal fraction 17beta-HSD2 using [3H]E2 as substrate measured after 20 mins in presence of NAD+ by HPLC analysis. In kind it is microsomes, Placenta, Microsome.

The species entered for a further data set is Homo sapiens. The data set can be described thus: Selectivity ratio of IC50 for human placental microsomal fraction 17beta-HSD2 to IC50 for human placental microsomal fraction 17beta-HSD1.
For data set [7], the target named is T1, Steryl-sulfatase. The data set can be described thus: Irreversible inhibition of human STS expressed in human T47D cells using [3H]E1S as substrate preincubated for 2 hr followed by substrate addition measured after 24 hrs in presence of E1S by HPLC analysis. The class given is cell-based.
Data set [8] can be described thus: Metabolic stability in human liver S9 fraction assessed as intrinsic clearance measured upto 60 mins in presence of NADPH by LC-MS/MS analysis. The class given is ADME, subcellular. Conditions: read-out: CLH; call rule not given here.
The test system of a further data set is HEK293. The data set can be described thus: Cytotoxicity against HEK293 cells assessed as cell growth inhibition by measuring lethal concentration measured after 72 hrs by MTT assay. The class given is functional, Homo sapiens. (Tetrazolium dyes change colour on reduction, which living cells bring about.)
The next data set concerns HepG2. The data set can be described thus: Cytotoxicity against human HepG2 cells assessed as cell growth inhibition by measuring lethal concentration measured after 48 hrs by MTT assay. The class given is functional.
Data set [9] has as its target T4, Aryl hydrocarbon receptor (Homo sapiens, UniProt P35869).
T4 sequence (P35869 whole entry): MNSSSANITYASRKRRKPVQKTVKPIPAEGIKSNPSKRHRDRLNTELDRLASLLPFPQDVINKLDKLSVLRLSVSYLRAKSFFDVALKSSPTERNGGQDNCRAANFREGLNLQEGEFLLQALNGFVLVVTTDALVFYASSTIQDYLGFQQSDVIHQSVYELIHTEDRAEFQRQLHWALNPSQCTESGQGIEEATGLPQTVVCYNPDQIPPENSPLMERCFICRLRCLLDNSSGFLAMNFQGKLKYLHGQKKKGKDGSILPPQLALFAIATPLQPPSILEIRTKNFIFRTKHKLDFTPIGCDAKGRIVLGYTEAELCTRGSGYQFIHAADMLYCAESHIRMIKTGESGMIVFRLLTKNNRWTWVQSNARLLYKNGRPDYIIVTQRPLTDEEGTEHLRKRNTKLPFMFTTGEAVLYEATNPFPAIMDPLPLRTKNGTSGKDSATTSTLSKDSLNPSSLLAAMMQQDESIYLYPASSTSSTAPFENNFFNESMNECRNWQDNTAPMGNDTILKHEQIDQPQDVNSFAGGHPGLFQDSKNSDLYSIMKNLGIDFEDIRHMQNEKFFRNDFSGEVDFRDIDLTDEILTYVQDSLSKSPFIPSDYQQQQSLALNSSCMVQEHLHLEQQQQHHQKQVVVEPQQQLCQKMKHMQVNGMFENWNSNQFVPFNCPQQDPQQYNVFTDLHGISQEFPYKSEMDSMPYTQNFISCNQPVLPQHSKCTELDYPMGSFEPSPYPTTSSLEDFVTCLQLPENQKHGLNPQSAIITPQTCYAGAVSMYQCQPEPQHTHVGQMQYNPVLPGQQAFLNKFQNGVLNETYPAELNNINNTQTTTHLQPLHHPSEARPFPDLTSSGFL
The data set can be described thus: Activation of AhR in human HepG2 cells assessed as increase in CYP1A1 activity at 3.16 uM measured after 48 hrs by fluorescence based analysis. The class given is cell-based. Conditions: hepg2, 48 h.

The nature of data set [10]: Observed Cmax in C57BL/6 mouse at 50 mg/kg, sc administered as single dose measured upto 24 hrs by HPLC-MS/MS analysis. In kind it is ADME, organism-based. Also on record: time < 24 hrs, dose 50 mg/kg, route sc. The following applies: in vivo.
Data set [11] can be described thus: Drug concentration in C57BL/6 mouse at 50 mg/kg, sc administered as single dose measured after 24 hrs by HPLC-MS/MS analysis. In kind it is ADME, organism-based. Conditions: in vivo, read-out: Drug uptake.
The nature of data set [12]: Half life in C57BL/6 mouse at 50 mg/kg, sc administered as single dose measured after 24 hrs by HPLC-MS/MS analysis. The following applies: in vivo. In kind it is ADME, organism-based.
Data set [13] is described as follows: AUC(0 to 24 hrs) in C57BL/6 mouse at 50 mg/kg, sc administered as single dose measured after 24 hrs by HPLC-MS/MS analysis. In kind it is ADME, organism-based. Details: time 24 hrs, dose 50 mg/kg, route sc. The following applies: in vivo.
Data set [14] in a line: Lipophilicity, logD of compound at pH 7.4. In kind it is physicochemical. Conditions: buffer.
A short description of data set [15]: Aqueous solubility of compound in PBS measured after 1 to 24 hrs. The class given is physicochemical. The following applies: time 1-24 hrs.
Data set [16] is described as follows: Oral bioavailability in C57BL/6 mouse at 50 mg/kg administered as single dose measured after 24 hrs by HPLC-MS/MS analysis. The following applies: in vivo. The class given is ADME, organism-based.
A short description of data set [17]: Cmax in C57BL/6 mouse at 50 mg/kg, sc administered as single dose ever day measured after 2 hrs by HPLC-MS/MS analysis. The class given is ADME, organism-based. Details: dose 50 mg/kg, time 2 hrs, route sc. The following applies: in vivo.
Data set [18] in a line: Cmin in C57BL/6 mouse at 50 mg/kg, sc administered as single dose ever day measured after 24 hrs by HPLC-MS/MS analysis. In kind it is ADME, organism-based. The following applies: in vivo, read-out: Cmin.

As usually defined, the IC50 is the midpoint of a concentration-inhibition curve. In general, half-life refers to the time in which the quantity being followed falls by half. What is called Cmax is the peak of the concentration-time curve. A word on the AUC(0-t): it is the area under the concentration-time curve up to a stated or last time point. The term logD denotes the decadic logarithm of the distribution of all forms, ionised or not, between an organic phase and buffer at a given pH. A higher logD goes with a more lipophilic compound. A word on the solubility: it is how much of the substance goes into solution per volume. Lower therefore signals little dissolved substance. As usually defined, the bioavailability is dose-corrected exposure relative to a reference, in per cent.

As for `Cc1cc(OS(N)(=O)=O)ccc1N(C)C(=O)c1ccc(-c2cc(C)c(O)c(C)c2)o1`, the IC50 at Steryl-sulfatase [1] was 400 nM; in data set [2], 11 nM; in data set [5], 43 nM; in [6] it was 6200 nM; on Steryl-sulfatase [7] it was 420 nM. Also, the half-life is 1.42 h in [3], 0.935 h in data set [4] and 3.82 h in [12]. Also, the Ratio IC50 in the data set filed under Homo sapiens amounted to 145. The microsomal CLint in [8] was 8.2 µL/min/mg. Also, the LC20 result in the data set with HEK293 was “<=31 uM”; with HepG2, 23000 nM. Further, the Activity entry in [9] is reported as “Not Active”. In addition, the Cmax in [10] came out at 2820 nM; in [17] it was 2350 nM. In addition, the concentration at 24 h worked out at 797 nM in data set [11] and 800 nM in [18]. In addition, the AUC(0-t) at 24 h in [13] is 11600 ng·h/mL. The compound also returned a logD in [14] of 2.2. The compound further came in with a solubility in [15] of 40 µM (≈ 17.2 µg/mL). In data set [16], this compound displayed a bioavailability of 1.5%.
